Results taken from US20010012854A1, “MULTICATALYTIC PROTEASE INHIBITORS FOR USE AS ANTI-TUMOR AGENTS” (priority 1997, published 2001).
One block for each compound: values may come before it.

Key:
[1] = target: MCP chymotrypsin-like activity (Homo sapiens, UniProt P28074); assay: Inhibition of MCP chymotrypsin-like activity; type: biochemical
Text: (§1) The rank-order potency for Jurkat cell killing precisely matched the order for MCP inhibition (Table 2, below).
Inhibition of the chymotrypsin-like activity of MCP by the disclosed MCP inhibitors has been reported, but these MCP inhibitors produced relatively little inhibition on the MCP trypsin-like activity and cathepsin B, a vacuolar cysteine protease (Iqbal, M., et al. J. Med Chem. 38: 2276-2277, 1995; Iqbal, M., et al. Bioorg. Med. Chem. Lett. 6: 287-290, 1996; and Harding, C. V., et al. J. Immuno. 155: 1767-1775, 1995). Furthermore, the order of potency for inhibition of the chymotrypsin-like activity was reported to be Compound A>Compound B>Compound C by using both isolated MCP and intact murine B cells (Iqbal, M., et al. J. Med Chem. 38: 2276-2277, 1995; Iqbal, M., et al. Bioorg. Med. Chem. Lett. 6: 287-290, 1996; and Harding, C. V., et al. J. Immuno. 155: 1767-1775, 1995).

[2] = test system: Jurkat Human T Cell Leukemia Line; assay: Jurkat cell viability assay (XTT reduction); type: cell-based; conditions: Jurkat cells, 24 hours, viability by XTT reduction, read-out: Toxicity (IC50)
Procedure: f. Cell viability assay. Jurkat cells were treated with MCP inhibitors or vehicle for 30 min. at 37° C. Next, ionomycin (1 μM) and the phorbol ester PMA (10 ng/ml) were added, together with 0.2% ethanol. After 24 h, cell viability was assessed by reduction of XTT (Sigma, X4251). To each well, 50 μl of XTT (1 mg/ml) and 25 μl PMS (Sigma 9625, 5 mM) were added. After 3 h at 37° C., the OD of each well was read at 450 nm/690 nm by a plate reader.
as §1

[3] = test system: human leukemia HL-60 cells; assay: Apoptosis in HL-60 cells (DNA fragmentation, PARP cleavage); type: cell-based
Procedure: (§2) d. Flow cytometry nuclear staining and DNA fragmentation assays. DNA content analysis using flow cytometry was performed as described previously (Nicoletti, I., et al. J. Immunol. Methods 139:271-279, 1992). To assay nuclear morphology, cells were washed with PBS, fixed with 70% ethanol for 1 h, and stained with Hoechst 33258 (1 mM) for 30 min. The nuclear morphology of cells was visualized by fluorescence microscope (OLYMPUS BH2). DNA fragmentation was assayed as described previously (Grant, S., et al. Cancer Res. 52:6270-6278, 1992).
(§3) e. Whole cell extracts and western blot assay. To prepare whole cell extracts, cells were washed with PBS, and homogenized in lysis buffer (50 mM Tris, pH 8.0, 5 mM EDTA, 150 mM NaCl, 0.5% Nonidet P-40, 0.5 mM PMSF and 0.5 mM dithiothreitol). Following 30 min rocking at 4° C., the lysates were centrifuged and the supernatants were collected as whole cell extracts. The protein samples were then analyzed by sodium dodecyl sulfate-6% polyacrylamide gel electrophoresis (20-60 μg protein per lane) followed by the enhanced chemiluminescence Western blot assay using specific antibodies to CPP32, PARP, p21, p27 or RB.
Example 1 was designed to determine if MCP is involved in the survival signaling pathway(s) and if inhibition of MCP activity induces apoptosis. Human Jurkat T cells were treated with 30 μM Compound A for 4 h. […]

[4] = test system: PARP, RB and caspase-3 cleavage in Jurkat T cells; assay: Western blot of caspase-3, PARP and RB in Jurkat T cells; type: cell-based, human; conditions: Jurkat T cells, 15 μM, time course up to 24 h
Procedure: as §3
(§4) Example 1 was designed to determine if MCP is involved in the survival signaling pathway(s) and if inhibition of MCP activity induces apoptosis. Human Jurkat T cells were treated with 30 μM Compound A for 4 h. […] Both the p112 and p115 forms of RB as p112-115/RB were combined and used as an apoptosis marker.
The ability of these three MCP inhibitors to induce changes in PARP and RB proteins in a parallel experiment was also investigated. […] This rank corresponded exactly to that of the three compounds for inhibition of the chymotrypsin-like activity in isolated proteasomes (Iqbal, M., et al. J. Med Chem. 38: 2276-2277, 1995; Iqbal, M., et al. Bioorg. Med. Chem. Lett. 6: 287-290, 1996) and in intact murine B cells (Harding, C. V., et al. J Immuno. 155: 1767-1775, 1995).

[5] = test system: human Jurkat T cells; assay: Apoptosis in Jurkat T cells (flow cytometry sub-G1 DNA content, DNA fragmentation); type: cell-based; conditions: for Increase in the apoptotic population with sub-G1 DNA content: Jurkat T cells, 15 μM, 8 h
Procedure: (§5) c. Treatment of cells with MCP inhibitor. Cells were treated with a specified MCP Inhibitor, a standard anticancer agent (etoposide or cisplatin), or DMSO (vehicle). During this process, morphological changes and cellular detachment (for attached cell lines) were monitored. At each time point, cells were harvested, and used for measurement of apoptosis and other biochemical events. In Example 1, infra, involving YVAD-CMK, Compound A was first added to Jurkat T cells. This was followed immediately by dividing the cells into multiple tissue culture flasks. YVAD-CMK was then added to an indicated concentration.
as §2, §4
When human Jurkat T cells were treated with 15 μM Compound A for 8 h, there was a 23% increase in the apoptotic population with sub-G1 DNA content (FIG. 2, panels b vs. a). By comparison, when Compound B was used, only an 8%-increase in sub-G1 population was detected (FIG. 2, panels c vs. a).

[6] = test system: Bcl-2-overexpressing Jurkat cells; assay: Apoptosis in Bcl-2-overexpressing Jurkat cells (nuclear staining, western blot); type: cell-based, human
Procedure: (§6) b. Cell culture. Human Jurkat T and HL-60 cells were grown in RPMI 1640 (Life Technologies, Inc.) supplemented with 10% fetal calf serum (Sigma), 100 units/ml of penicillin, 100 μg/ml of streptomycin and 2mM L-glutamine (growth medium). Jurkat T. cells overexpressing the Bcl-2 oncoprotein or vector alone (provided by Dr. D. Johnson, University of Pittsburgh, Pa.) were grown in the same growth medium with […] G418. Human cancer cell lines of breast (MCF-7, MDA-MB-231), prostate (DU145, PC3) and osteosarcoma (U2-OS), obtained from American Type Culture Collection (ATCC. Rockville, Md.)), were also grown in the RPMI growth medium. Human oral (SCC-25; from ATCC) and brain (SNB-19; Welch, W. C., et al. In Vitro Cell. Dev. Biol., 31:610-616, 1995) cancer cell lines, and normal (WI-38) and SV40-transformed human fibroblasts (WI-38 VA-13; from ATCC) were grown in DMEM medium containing 10% fetal calf serum, penicillin, streptomycin and L-glutamine.
as §2, §3
It has been shown that overexpression of Bcl-2 oncoprotein inhibits apoptosis in many cell systems (Miura, M., et al., J. Cell 75: 653-660, 1993). Bcl-2 expression in human Jurkat T cells for inhibition of Compound A-induced apoptosis was investigated.

[7] = test system: human prostate cancer DU145 cells; assay: Detachment and apoptotic nuclear changes in DU145 cells; type: cell-based; conditions: DU145, 16 h
Procedure: as §5, §2
Similar to PC-3, about half of human prostate cancer DU145 cells became detached after exposure to Compound A for 16 h.

[8] = test system: SV40-transformed human fibroblasts (WI-38 VA13); assay: Detachment, apoptotic nuclear changes and PARP cleavage in SV40-transformed fibroblasts; type: cell-based; conditions: WI-38 VA13, 10 μM, up to 22 h
Procedure: as §5, §2, §3
(§7) Whether Compound A has, any selectivity in induction of apoptosis between transformed and normal cells was investigated. Normal human fibroblast cell line (WI-38) and its SV40-transformed derivative (WI-38 VA13) were utilized. […]

[9] = test system: human breast cancer MCF-7 cells; assay: Detachment and apoptotic nuclear changes in MCF-7 cells; type: cell-based; conditions: MCF-7, 24 h
Procedure: as §5, §2
(§8) Detachment was also found in at least half of human breast cancer MDA-MB-231 and MCF-7 cells, after exposure to Compound A for 24 h.

[10] = test system: Human prostate cancer PC-3 cells; assay: Detachment and apoptotic nuclear changes in PC-3 cells; type: cell-based; conditions: PC-3, 10 μM, 36 h
Procedure: as §5, §2
Human prostate cancer PC-3 cells were treated with 10 μM Compound A, etoposide, or an equal percentage of vehicle (DMSO), followed by separation of the attached and detached cell populations. Both attached and detached cell populations were then used for detection of apoptotic nuclear changes. After 36 h treatment with Compound A, ˜50% of PC-3 cells became detached.

[11] = test system: p21 and p27 in human breast cancer MDA-MB-231 cells; assay: Western blot of p21 and p27 levels in MDA-MB-231 cells; type: cell-based; conditions: MDA-MB-231, 17 hours, concentrations up to 100 μM
Procedure: as §3
Additionally, a band of 70 kDa whih may represent ubiquinated p70 was also observed. In contrast, etoposide caused only limited accumulation of p21 (≦4-fold) and p27 (≦2-fold) at 17 hours when used at concentrations up to 100 μM.

[12] = test system: Normal human fibroblast cell line (WI-38); assay: Detachment, apoptotic nuclear changes and PARP cleavage in normal fibroblasts; type: cell-based; conditions: normal WI-38, 10 μM, up to 22 h
Procedure: as §5, §2, §3, §7

[13] = test system: human breast cancer MDA-MB-231 cells; assay: Detachment and apoptotic nuclear changes in MDA-MB-231 cells; type: cell-based; conditions: MDA-MB-231, 24 h
Procedure: as §5, §2, §8

[14] = test system: Jurkat cells transfected with a control vector; assay: Apoptotic nuclear changes (Hoechst staining) in Jurkat cells transfected with control vector; type: cell-based, human; conditions: 50 μM, 8 h
Procedure: as §6, §2
The apoptosis-inducing potency of Compound A was compared with two standard chemotherapeutic anti-cancer agents, etoposide and cisplatin. […] By comparison, treatment with 50 μM etoposide for 8 h induced only ˜47% of these cells to undergo apoptosis (FIG. 3, panels c vs. a). Treatment of 10 μM Compound A, but not etoposide or cisplatin, induced apoptosis in human prostate, breast, tongue and brain cancer cells and also in SV40 DNA virus-transformed human fibroblasts (see FIGS. 5-7).

IC50 [1]: 300 nM
Compound: CC(C)CC(C=NNC(N)=O)NC(=O)C(CCCNC(=N)N[N+](=O)[O-])NC(=O)C(CCCCCCCCC#N)C1CCCC1 (centres unmarked) [H]
IC50 [2]: > 30000 nM

IC50 [1]: 6 nM
Compound: CC(C)C[C@@H](C=O)NC(=O)[C@@H](CCCNC(=N)N[N+](=O)[O-])NC(=O)C(CCCCCCCCC#N)C1CCCC1 (some centres unmarked) [Compound B]
Internucleosomal fragmentation of DNA [3]: induced internucleosomal fragmentation of DNA
Production of p85/PARP and p112-115/RB [4]: much less p85/PARP and p 112-115/RB were found before 8 h
Increase in the apoptotic population with sub-G1 DNA content [5]: 8%
IC50 [2]: 1600 nM

IC50 [1]: 21 nM
Compound: CCNC(=O)C(=O)C(CC(C)C)NC(=O)C(CCCN/C(N)=N/[N+](=O)[O-])NC(=O)C(CCCCCCCCC#N)C1CCCC1 (centres unmarked) [Compound C]
Production of p85/PARP and p112-115/RB [4]: only induced little p85/PARP and p112-115/RB after 24 h
Increase in the apoptotic population with sub-G1 DNA content [5]: did not induce apoptosis
IC50 [2]: 9700 nM

Compound: COC(=O)CCCCCCCCC(C(=O)N[C@@H](CCCNC(=N)NS(=O)(=O)c1ccc2c(c1)CCC(C)(C)O2)C(=O)NC(C=O)CC(C)C)C1CCCC1 (some centres unmarked) [F]
IC50 [2]: 1700 nM

Compound: Acetyl-YVAD-chloromethyl ketone [YVAD-CMK, reference compound]
Block of Compound A-induced apoptotic events (apoptotic peak, caspase-3 processing, PARP cleavage, RB dephosphorylation and cleavage) ([5]; added to Compound A-treated Jurkat T cells): completely blocked

IC50 [1]: 10 nM
Compound: COC(=O)CCCCCCCCC(C(=O)N[C@@H](CCCNC(=N)NS(=O)(=O)c1ccc2c(c1)CCC(C)(C)O2)C(=O)N[C@H](C=O)CC(C)C)C1CCCC1 (some centres unmarked) [F]

Compound: COc1cc([C@@H]2c3cc4c(cc3[C@@H](O[C@@H]3O[C@@H]5CO[C@@H](C)O[C@H]5[C@H](O)[C@H]3O)[C@H]3COC(=O)[C@H]23)OCO4)cc(OC)c1O [etoposide, reference compound]
Effect of Bcl-2 expression on induced PARP and RB changes ([6]; 50 μM): inhibited these PARP and RB changes
Effect of Bcl-2 expression on induced apoptotic nuclear changes ([6]; etoposide treatment as in FIG. 3 (50 μM, 8 h)): blocked the apoptotic nuclear changes induced by etoposide
Detached cells [7]: very little detachment
Nuclear morphology [7]: the remaining attached cells still contained normal nuclei
Detachment and apoptotic nuclear changes [8]: did not induce apoptosis in either transformed or normal WI-38 cells
Apoptosis by nuclear staining [9]: did not induce apoptosis
Detached cells [10]: Little or no detachment
Nuclear morphology (apoptotic condensation and fragmentation) [10]: all the remaining attached cells contained normal, round nuclei
Accumulation of p21 [11]: ≤ 4 fold
Accumulation of p27 [11]: ≤ 2 fold
Detachment and apoptotic nuclear changes [12]: did not induce apoptosis in either transformed or normal WI-38 cells
Apoptosis by nuclear staining [13]: did not induce apoptosis
Cells exhibiting apoptotic nuclear changes [14]: ~47%

IC50 [1]: 20 nM
Compound: Cc1c(C)c(S(=O)(=O)NC(=N)NCCC[C@H](NC(=O)C(CCCCCCCCC#N)C2CCCC2)C(=O)N[C@H](C=O)CC(C)C)c(C)c2c1OC(C)(C)CC2 (some centres unmarked) [G]
IC50 [2]: 5700 nM
